Source: patent publication US20110166121A1 (LG LIFE SCIENCES LTD., priority 2008, published 2011)

Legend:
[1] = biological target: T1, Human P2Y12 receptor (Homo sapiens, UniProt Q9H244); experiment: Human P2Y12 receptor cell membrane binding assay with [3H] 2-Mes-ADP; settings: 1 nM [3H] 2-Mes-ADP, membranes of HEK cells expressing P2Y12 receptor; read-out: Binding activity (IC50)
T1 construct: expressed in transfected cells; host or cells: HEK cells
Summary of the method: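 Membranes from HEK cells expressing human P2Y12 were incubated with compound and 1 nM [3H]2-MeS-ADP for 1 h at room temperature. Bound radioactivity was collected by GF/B filtration.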

[2] = test system: Human platelet aggregation caused by ADP; experiment: Inhibition of ADP-induced platelet aggregation (Mimic-human PRP); assay type: cell-based; settings: 20 μM ADP, human platelet concentrate diluted with PPP, absorption at 595 nm
Summary of the method: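 Human PRP diluted with PPP to 3–4×10^8 platelets/mL was preincubated 20 min at room temperature with compound (0.01–30 μM, DMSO), then stimulated with 20 μM ADP. Aggregation read as A595 increase at 3 min versus 0 and 20 μM ADP controls; Ki from sigmoidal non-linear regression.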

T1 sequence (Q9H244 whole entry): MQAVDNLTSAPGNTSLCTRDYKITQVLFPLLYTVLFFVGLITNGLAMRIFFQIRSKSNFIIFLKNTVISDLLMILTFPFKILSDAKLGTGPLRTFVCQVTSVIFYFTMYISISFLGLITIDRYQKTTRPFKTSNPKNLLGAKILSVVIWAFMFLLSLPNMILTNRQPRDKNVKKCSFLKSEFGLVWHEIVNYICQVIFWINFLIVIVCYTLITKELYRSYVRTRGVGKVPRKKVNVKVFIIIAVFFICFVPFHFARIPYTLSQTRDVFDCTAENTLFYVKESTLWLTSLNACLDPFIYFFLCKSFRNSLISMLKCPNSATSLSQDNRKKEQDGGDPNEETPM

CCCc1cc2c(N3CCn4c(nnc4C(F)(F)F)C3)nc(N3CC[C@H](C(=O)OCOC(=O)C(C)(C)C)C3)nc2s1 [Example 1-59, (S)-1-[6-Propyl-4-(3-trifluoromethyl-5,6-dihydro-8H-[1,2,4]triazolo[4,3-a]pyrazin-7-yl)-thieno[2,3-d]pyrimidin-2-yl]-pyrrolidine-3-carboxylic acid 2,2-dimethyl-propionyloxymethyl ester] gave an IC50 [1] of 440 nM and a Ki [2] of 1450 nM.

Work on CCCc1cc2c(N3CCn4c(nnc4C(F)(F)F)C3)nc(N3CC[C@@H](C(=O)O)C3)nc2s1 [Example 1-61, (R)-1-[6-Propyl-4-(3-trifluoromethyl-5,6-dihydro-8H-[1,2,4]triazolo[4,3-a]pyrazin-7-yl)-thieno[2,3-d]pyrimidin-2-yl]-pyrrolidine-3-carboxylic acid] yielded an IC50 [1] of 11 nM and a Ki [2] of 7300 nM.

Molecule CCCc1cc2c(N3CCn4c(nnc4C(F)(F)F)C3)nc(N3CC[C@@H](C(=O)OC(C)C)C3)nc2s1 [Example 1-62, (R)-1-[6-Propyl-4-(3-trifluoromethyl-5,6-dihydro-8H-[1,2,4]triazolo[4,3-a]pyrazin-7-yl)-thieno[2,3-d]pyrimidin-2-yl]-pyrrolidine-3-carboxylic acid isopropyl ester] has an IC50 [1] of 320 nM and a Ki [2] of 200 nM.

Work on CCCc1cc2c(N3CCn4c(nnc4C(F)(F)F)C3)nc(N3CC[C@@H](C(=O)OCOC(=O)C(C)(C)C)C3)nc2s1 [Example 1-63, (R)-1-[6-Propyl-4-(3-trifluoromethyl-5,6-dihydro-8H-[1,2,4]triazolo[4,3-a]pyrazin-7-yl)-thieno[2,3-d]pyrimidin-2-yl]-pyrrolidine-3-carboxylic acid 2,2-dimethyl-propionyloxymethyl ester] yielded an IC50 [1] of 520 nM and a Ki [2] of 1000 nM.

With CCCc1cc2c(N3CCn4c(nnc4C(F)(F)F)C3)nc(N(C)C)nc2s1 [Example 1-64, Dimethyl-[6-propyl-4-(3-trifluoromethyl-5,6-dihydro-8H-[1,2,4]triazolo[4,3-a]pyrazin-7-yl)-thieno[2,3-d]pyrimidin-2-yl]-amine] the IC50 [1] was 170 nM and the Ki [2] was > 4000 nM.

CCCc1cc2c(N3CCn4c(nnc4C(F)(F)F)C3)nc(N3CCc4ccccc4C3)nc2s1 [Example 1-65, 2-[6-Propyl-4-(3-trifluoromethyl-5,6-dihydro-8H-[1,2,4]triazolo[4,3-a]pyrazin-7-yl)-thieno[2,3-d]pyrimidin-2-yl]-1,2,3,4-tetrahydro-isoquinoline] showed an IC50 [1] of 257 nM and a Ki [2] of 260 nM.

Molecule CCCc1cc2c(N3CCn4c(nnc4C(F)(F)F)C3)nc(N3CCc4cc(OC)c(OC)cc4C3)nc2s1 [Example 1-66, 6,7-Dimethoxy-2-[6-propyl-4-(3-trifluoromethyl-5,6-dihydro-8H-[1,2,4]triazolo[4,3-a]pyrazin-7-yl)-thieno[2,3-d]pyrimidin-2-yl]-1,2,3,4-tetrahydro-isoquinoline] has an IC50 [1] of 200 nM and a Ki [2] of 1400 nM.

In the case of CCCc1cc2c(N3CCn4c(nnc4C(F)(F)F)C3)nc(N3CCc4cc(OC)c(OC)cc4C3CC)nc2s1 (centres unmarked) [Example 1-67, 1-Ethyl-6,7-dimethoxy-2-[6-propyl-4-(3-trifluoromethyl-5,6-dihydro-8H-[1,2,4]triazolo[4,3-a]pyrazin-7-yl)-thieno[2,3-d]pyrimidin-2-yl]-1,2,3,4-tetrahydro-isoquinoline], the IC50 [1] is reported as 643 nM and the Ki [2] is reported as > 4000 nM.

CCCc1cc2c(N3CCn4c(nnc4C(F)(F)F)C3)nc(N3CCNc4ccccc43)nc2s1 [Example 1-68, 1-[6-Propyl-4-(3-trifluoromethyl-5,6-dihydro-8H-[1,2,4]triazolo[4,3-a]pyrazin-7-yl)-thieno[2,3-d]pyrimidin-2-yl]-1,2,3,4-tetrahydro-quinoxaline] gave an IC50 [1] of 100 nM and a Ki [2] of 430 nM.

With CCCc1cc2c(N3CCn4c(nnc4C(F)(F)F)C3)nc(N3CCC(N)CC3)nc2s1 [Example 1-69, 1-[6-Propyl-4-(3-trifluoromethyl-5,6-dihydro-8H-[1,2,4]triazolo[4,3-a]pyrazin-7-yl)-thieno[2,3-d]pyrimidin-2-yl]-piperidin-4-ylamine] the IC50 [1] was 82 nM and the Ki [2] was 300 nM.

CCCc1cc2c(N3CCn4c(nnc4C(F)(F)F)C3)nc(N3CCCC(N)C3)nc2s1 (centres unmarked) [Example 1-70, 1-[6-Propyl-4-(3-trifluoromethyl-5,6-dihydro-8H-[1,2,4]triazolo[4,3-a]pyrazin-7-yl)-thieno[2,3-d]pyrimidin-2-yl]-piperidin-3-ylamine] was tested, and the IC50 [1] was 167 nM and the Ki [2] was 110 nM.

With CCCc1cc2c(N3CCn4c(nnc4C(F)(F)F)C3)nc(N3CCc4ccccc43)nc2s1 [Example 1-71, 7-[2-(2,3-Dihydro-indol-1-yl)-6-propyl-thieno[2,3-d]pyrimidin-4-yl]-3-trifluoromethyl-5,6,7,8-tetrahydro-[1,2,4]triazolo[4,3-a]pyrazine] the IC50 [1] was 526 nM and the Ki [2] was > 4000 nM.

For CCCc1cc2c(N3CCn4c(nnc4C(F)(F)F)C3)nc(N3Cc4ccccc4C3)nc2s1 [Example 1-72, 7-[2-(1,3-Dihydro-isoindol-2-yl)-6-propyl-thieno[2,3-d]pyrimidin-4-yl]-3-trifluoromethyl-5,6,7,8-tetrahydro-[1,2,4]triazolo[4,3-a]pyrazine], the IC50 [1] was 517 nM and the Ki [2] was > 4000 nM.

With CCCc1cc2c(N3CCn4c(nnc4C(F)(F)F)C3)nc(-n3ccc4ccccc43)nc2s1 [Example 1-73, 7-(2-Indol-1-yl-6-propyl-thieno[2,3-d]pyrimidin-4-yl)-3-trifluoromethyl-5,6,7,8-tetrahydro-[1,2,4]triazolo[4,3-a]pyrazine] the IC50 [1] was 360 nM and the Ki [2] was > 4000 nM.

With CCCc1cc2c(N3CCn4c(nnc4C(F)(F)F)C3)nc(N3CCn4c(nnc4C(F)(F)F)C3)nc2s1 [Example 1-74, 7,7′-(6-propylthieno[2,3-d]pyrimidine-2,4-diyl)bis[3-(trifluoromethyl)-5,6,7,8-tetrahydro[1,2,4]triazolo[4,3-a]pyrazine]] the IC50 [1] was 33 nM and the Ki [2] was 40 nM.

In the case of CCCc1cc2c(N3CCn4c(nnc4C(F)(F)F)C3)nc(N3CCn4cnnc4C3)nc2s1 [Example 1-75, 7-[2-(5,6-Dihydro-8H-[1,2,4]triazolo[4,3-a]pyrazin-7-yl)-6-propyl-thieno[2,3-d]pyrimidin-4-yl]-3-trifluoromethyl-5,6,7,8-tetrahydro-[1,2,4]triazolo[4,3-a]pyrazine], the IC50 [1] is reported as 32 nM and the Ki [2] is reported as 7 nM.

CCCc1cc2c(N3CCn4c(nnc4C(F)(F)F)C3)nc(N3CCn4ccnc4C3)nc2s1 [Example 1-77, 7-[2-(5,6-Dihydro-8H-imidazo[1,2-a]pyrazin-7-yl)-6-propyl-thieno[2,3-d]pyrimidin-4-yl]-3-trifluoromethyl-5,6,7,8-tetrahydro-[1,2,4]triazolo[4,3-a]pyrazine] gave an IC50 [1] of 47 nM and a Ki [2] of 60 nM.

Molecule CCCc1cc2c(N3CCn4c(nnc4C(F)(F)F)C3)nc(N3CCn4cc(C(F)(F)F)nc4C3)nc2s1 [Example 1-78, 7-[6-Propyl-2-(2-trifluoromethyl-5,6-dihydro-8H-imidazo[1,2-a]pyrazin-7-)-thieno[2,3-d]pyrimidin-4-yl]-3-trifluoromethyl-5,6,7,8-tetrahydro-[1,2,4]triazolo[4,3-a]pyrazine] has an IC50 [1] of 110 nM and a Ki [2] of 200 nM.

Molecule CCCc1cc2c(N3CCn4c(nnc4C(F)(F)F)C3)nc(N3CCc4sccc4C3)nc2s1 [Example 1-79, 7-[2-(6,7-Dihydro-4H-thieno[3,2-c]pyridin-5-yl)-6-propyl-thieno[2,3-d]pyrimidin-4-yl]-3-trifluoromethyl-5,6,7,8-tetrahydro-[1,2,4]triazolo[4,3-a]pyrazine] has an IC50 [1] of 370 nM and a Ki [2] of 1250 nM.

CCCc1cc2c(N3CCn4c(nnc4C(F)(F)F)C3)nc(NC(Cc3ccc(O)cc3)C(=O)O)nc2s1 (centres unmarked) [Example 1-81, 3-(4-Hydroxy-phenyl)-2-[6-propyl-4-(3-trifluoromethyl-5,6-dihydro-8H-[1,2,4]triazolo[4,3-a]pyrazin-7-yl)-thieno[2,3-d]pyrimidin-2-ylamino]-propionic acid] was tested, and the IC50 [1] was 320 nM and the Ki [2] was 2300 nM.

In the case of CCCc1cc2c(N3CCn4c(nnc4C(F)(F)F)C3)nc(N3CCN(C(=O)C(F)(F)F)CC3)nc2s1 [Example 1-82, 2,2,2-Trifluoro-1-{4-[6-propyl-4-(3-trifluoromethyl-5,6-dihydro-8H-[1,2,4]triazolo[4,3-a]pyrazin-7-yl)-thieno[2,3-d]pyrimidin-2-yl]-piperazin-1-yl}-ethanone], the IC50 [1] is reported as 14300 nM and the Ki [2] is reported as > 4000 nM.

CCCc1cc2c(N3CCn4c(nnc4C(F)(F)F)C3)nc(NC3CNC3)nc2s1 [Example 1-83, Azetidin-3-yl-[6-propyl-4-(3-trifluoromethyl-5,6-dihydro-8H-[1,2,4]triazolo[4,3-a]pyrazin-7-yl)-thieno[2,3-d]pyrimidin-2-yl]-amine] showed an IC50 [1] of 320 nM and a Ki [2] of 7 nM.

CCCc1cc2c(N3CCn4c(nnc4C(F)(F)F)C3)nc(N3CC(OC(C)=O)C3)nc2s1 [Example 1-84, Acetic Acid 1-[6-propyl-4-(3-trifluoromethyl-5,6-dihydro-8H-[1,2,4]triazolo[4,3-a]pyrazin-7-yl)-thieno[2,3-d]pyrimidin-2-yl]-azetidin-3-yl ester] was tested, and the IC50 [1] was 160 nM and the Ki [2] was 73 nM.

With CCCc1cc2c(N3CCn4c(nnc4C(F)(F)F)C3)nc(N3CC(O)C3)nc2s1 [Example 1-85, 1-[6-Propyl-4-(3-trifluoromethyl-5,6-dihydro-8H-[1,2,4]triazolo[4,3-a]pyrazin-7-yl)-thieno[2,3-d]pyrimidin-2-yl]-azetidin-3-ol] the IC50 [1] was 96 nM and the Ki [2] was 14 nM.

CCCc1cc2c(N3CCn4c(nnc4C(F)(F)F)C3)nc(N3CC[C@H](C(N)=O)C3)nc2s1 [Example 1-86, (S)-1-[6-Propyl-4-(3-trifluoromethyl-5,6-dihydro-8H-[1,2,4]triazolo[4,3-a]pyrazin-7-yl)-thieno[2,3-d]pyrimidin-2-yl]-pyrrolidine-3-carboxylic acid amide] gave an IC50 [1] of 24 nM and a Ki [2] of 11 nM.
